Source: ChEMBL document CHEMBL3627603, “Helical peptide-polyamine and -polyether conjugates as synthetic ionophores” (Bioorg Med Chem, 2015)
Converted amounts (≈) assume the structure as drawn. The source made the active and inactive calls. No cut-off for these calls is given here. Starred links: 1 amine or outer side, 2 acyl side, 3 side chain; linkers in the order of their positions; H or OH if unused. Non-standard residues stand in square brackets, D forms with d. Residues, ends and D or L forms follow the SMILES beside them. *: point of attachment. HN(CH2CH2O)5CH2CH2NH = C(COCCOCCOCCOCCOCCN[*:2])N[*:1]; X1 = O=C(c1ccc(OP(=O)(O)O)cc1)*; Spermine = NCCCNCCCCNCCCN*; Aib = CC(C)(N)C(=O)O

Experiments:
Escherichia coli [1] = test: Induction of outer membrane permeabilization of Escherichia coli ML-35 pYC constitutively expressing cytoplasmic beta-galactosidase/periplasmic beta-lastamase assessed as CENTA hydrolysis at 64 uM by microplate reader analysis; assay type: functional, organism-based
[2] = (§1) Ionophoric activity across large unilamellar vesicles containing 95:5 egg yolk phosphatidylcholine and phosphatidylglycerol assessed as apparent first order rate constant for H+ transport at 3% of total concentration of lipids at 25 degC measured after 20 mins by HPTS-based fluorescence assay (reference value: 2 x 10^-4/s); assay type: ADME
Pseudomonas aeruginosa = test: Antibacterial activity against Pseudomonas aeruginosa ATCC 27853 after 24 hrs by broth microdilution method; assay type: functional; details: ATCC 27853, 24 h
Candida albicans = test: Antifungal activity against Candida albicans clinical isolate after 48 hrs by broth microdilution method; assay type: functional
[3] = as §1, with “2.5%” for “3%”; assay type: ADME
[4] = as §1, with “0.5%” for “3%”; assay type: ADME
Staphylococcus aureus [5] = test: Antibacterial activity against Staphylococcus aureus 34 clinical isolate after 24 hrs by broth microdilution method; assay type: functional; details: Staphylococcus aureus, 34, 24 h
[6] = Ionophoric activity across large unilamellar vesicles containing 95:5 egg yolk phosphatidylcholine and phosphatidylglycerol assessed as apparent first order rate constant for Na+ transport at 1% of total concentration of lipids at 25 degC measured every 30 mins over 14 hrs by 23Na+ NMR analysis; assay type: ADME
[7] = as §1, with “1%” for “3%”; assay type: ADME
[8] = as §1, with “1.5%” for “3%”; assay type: ADME
Escherichia coli [9] = test: Antibacterial activity against Escherichia coli ATCC 25922 after 24 hrs by broth microdilution method; assay type: functional; details: ATCC 25922, 24 h
Staphylococcus aureus [10] = test: Antibacterial activity against methicillin-resistant Staphylococcus aureus 16 clinical isolate after 24 hrs by broth microdilution method; assay type: functional; details: Staphylococcus aureus, 16, 24 h
[11] = as §1, with “2%” for “3%”; assay type: ADME
Cryptococcus neoformans = test: Antifungal activity against Cryptococcus neoformans clinical isolate after 48 hrs by broth microdilution method; assay type: functional
Escherichia coli [12] = test: Induction of inner membrane permeabilization of Escherichia coli ML-35 pYC constitutively expressing cytoplasmic beta-galactosidase/periplasmic beta-lastamase assessed as Gal-ONp hydrolysis at 64 uM by microplate reader analysis; assay type: functional, organism-based
[13] = Induction of lysis of large unilamellar vesicles containing 95:5 egg yolk phosphatidylcholine and phosphatidylglycerol assessed as calcein release at 0.22 mM treated at 400 to 1600 secs by fluorometric analysis; assay type: functional
Escherichia coli [14] = test: Induction of outer membrane permeabilization of Escherichia coli ML-35 pYC constitutively expressing cytoplasmic beta-galactosidase/periplasmic beta-lastamase assessed as CENTA hydrolysis at 256 uM by microplate reader analysis; assay type: functional, organism-based
[15] = Ionophoric activity across large unilamellar vesicles containing 95:5 egg yolk phosphatidylcholine and phosphatidylglycerol assessed as apparent first order rate constant for Na+ transport at 0.2% of total concentration of lipids at 25 degC measured every 30 mins over 14 hrs by 23Na+ NMR analysis; assay type: ADME
[16] = Ionophoric activity across large unilamellar vesicles containing 95:5 egg yolk phosphatidylcholine and phosphatidylglycerol assessed as apparent first order rate constant for Na+ transport at 1.5% of total concentration of lipids at 25 degC measured every 30 mins over 14 hrs by 23Na+ NMR analysis; assay type: ADME
Escherichia coli [17] = test: Induction of inner membrane permeabilization of Escherichia coli ML-35 pYC constitutively expressing cytoplasmic beta-galactosidase/periplasmic beta-lastamase assessed as Gal-ONp hydrolysis at 256 uM by microplate reader analysis; assay type: functional, organism-based
[18] = Ionophoric activity across large unilamellar vesicles containing 95:5 egg yolk phosphatidylcholine and phosphatidylglycerol assessed as apparent first order rate constant for Na+ transport at 2% of total concentration of lipids at 25 degC measured every 30 mins over 14 hrs by 23Na+ NMR analysis; assay type: ADME
[19] = Ionophoric activity across large unilamellar vesicles containing 95:5 egg yolk phosphatidylcholine and phosphatidylglycerol assessed as apparent first order rate constant for Na+ transport at 3% of total concentration of lipids at 25 degC measured every 30 mins over 14 hrs by 23Na+ NMR analysis; assay type: ADME
[20] = Ionophoric activity across large unilamellar vesicles containing 95:5 egg yolk phosphatidylcholine and phosphatidylglycerol assessed as apparent first order rate constant for Na+ transport at 0.5% of total concentration of lipids at 25 degC measured every 30 mins over 14 hrs by 23Na+ NMR analysis; assay type: ADME

Compound: CC(C)(NC(=O)c1ccc(OP(=O)(O)O)cc1)C(=O)NC(C)(C)C(=O)NC(C)(C)C(=O)NC(C)(C)C(=O)NC(C)(C)C(=O)NC(C)(C)C(=O)NC(C)(C)C(=O)NC(C)(C)C(=O)NCCCNCCCCNCCCN (X1-[Aib][Aib][Aib][Aib][Aib][Aib][Aib][Aib]-Spermine)
- Activity (Escherichia coli [1]): Active
- Kapp [2]: 6.77 ×10⁻² /s
- MIC (Pseudomonas aeruginosa): 64 µM (≈ 69.3 µg/mL)
- MIC (Candida albicans): 32 µM (≈ 34.7 µg/mL)
- Kapp [3]: 3.62 ×10⁻² /s
- Kapp [4]: 4.08 ×10⁻³ /s
- MIC (Staphylococcus aureus [5]): 16 µM (≈ 17.3 µg/mL)
- Activity [6]: Not Active
- Kapp [7]: 5.24 ×10⁻³ /s
- Kapp [8]: 1.73 ×10⁻² /s
- MIC (Escherichia coli [9]): 32 µM (≈ 34.7 µg/mL)
- MIC (Staphylococcus aureus [10]): 32 µM (≈ 34.7 µg/mL)
- Kapp [11]: 1.98 ×10⁻² /s
- MIC (Cryptococcus neoformans): 16 µM (≈ 17.3 µg/mL)
- Activity (Escherichia coli [12]): Active
- Activity [13]: inactive

Compound: C[C@@H]1[C@H](O)[C@@H](C)/C=C/C=C/C=C/C=C/C=C/C=C/C=C/[C@H](O[C@@H]2O[C@H](C)[C@@H](O)[C@H](N)[C@@H]2O)C[C@@H]2O[C@](O)(C[C@@H](O)C[C@@H](O)[C@H](O)CC[C@@H](O)C[C@@H](O)CC(=O)O[C@H]1C)C[C@H](O)[C@H]2C(=O)O [AMPHOTERICIN B]
- Activity [6]: Active
- Activity [7]: Active

Compound: CC(C)(NC(=O)c1ccc(OP(=O)(O)O)cc1)C(=O)NC(C)(C)C(=O)NC(C)(C)C(=O)NC(C)(C)C(=O)NC(C)(C)C(=O)NC(C)(C)C(=O)NC(C)(C)C(=O)NC(C)(C)C(=O)NCCOCCOCCOCCOCCOCCN (X1-[Aib][Aib][Aib][Aib][Aib][Aib][Aib][Aib]-{HN(CH2CH2O)5CH2CH2NH})
- MIC (Pseudomonas aeruginosa): > 128 µM
- MIC (Candida albicans): > 128 µM
- Kapp [3]: 4.89 ×10⁻² /s
- Kapp [4]: 4.96 ×10⁻³ /s
- MIC (Staphylococcus aureus [5]): > 128 µM
- Activity (Escherichia coli [14]): inactive
- Kapp [15]: 0.0017 min⁻¹
- Kapp [6]: 0.0063 min⁻¹
- Kapp [7]: 7.71 ×10⁻³ /s
- Kapp [8]: 1.78 ×10⁻² /s
- MIC (Escherichia coli [9]): > 128 µM
- MIC (Staphylococcus aureus [10]): > 128 µM
- Kapp [16]: 0.0078 min⁻¹
- Activity (Escherichia coli [17]): inactive
- Kapp [11]: 2.59 ×10⁻² /s
- MIC (Cryptococcus neoformans): > 128 µM
- Activity [13]: inactive
- Kapp [18]: 0.0102 min⁻¹
- Kapp [19]: 0.015 min⁻¹
- Kapp [20]: 0.0037 min⁻¹

Compound: CC(C)[C@@H](CC[C@@H](C)[C@H]1CC[C@H]2[C@@H]3[C@H](O)C[C@H]4C[C@@H](NCCCNCCCCN)CC[C@]4(C)[C@H]3CC[C@]12C)OS(=O)(=O)O [SQUALAMINE]
- MIC (Pseudomonas aeruginosa): 4 µM (≈ 2.51 µg/mL)
- MIC (Candida albicans): 4 µM (≈ 2.51 µg/mL)
- MIC (Staphylococcus aureus [5]): 1 µM (≈ 0.628 µg/mL)
- MIC (Escherichia coli [9]): 1 µM (≈ 0.628 µg/mL)
